Measurements taken from patent USRE47689E1, “Compounds for treating spinal muscular atrophy” (PTC Therapeutics, Inc., priority 2011, dated 2019).

Legend:
[1] = test system: SMN2 minigene (full length SMN2 minigene mRNA containing SMN2 exon 7); experiment: SMN2 minigene mRNA splicing RT-qPCR assay in cultured cells; assay type: cell-based, human; conditions: for exon 7 inclusion / SMN2mini FL mRNA relative to vehicle control: HEK293H cells with SMN2-A minigene; for exon 7 inclusion: relative to untreated cells; for SMN2mini FL mRNA relative to vehicle control: rising concentrations, 24 hr; for EC (1.5-fold): Homo sapiens, HEK293-H, HEK293H cells stably transfected with SMN2-A minigene, 24 hours, 7-point concentration curve, 1.5-fold relative to vehicle-treated cells, read-out: EC1.5x for production of full length SMN2 mRNA
Summary of the method: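 Lysates → one-step RT-qPCR, minigene-specific primers (0.4 μM final) + GAPDH multiplex, 40 cycles. FL/GAPDH vs DMSO; EC1.5x, star-binned.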

[2] = test system: gems (Smn-dependent nuclear speckles); experiment: Gems count (Smn-dependent nuclear speckle count) assay; assay type: cell-based, human; conditions: SMA Type 1 patient fibroblasts; 48 hours; fluorescence microscopy
Excerpt: The level of Smn protein directly correlates with the amount of nuclear foci, also known as gems, produced upon staining the cell with a fluorescently labeled anti-Smn antibody (Liu and Dreyfuss, EMBO J., 1996, 15:3555). Gems are multi-protein complexes whose formation is nucleated by the Smn protein and the gems count assay is used to evaluate the level of Smn protein in the cell. As described herein, the gems count assay is used to quantify the level of Smn protein in SMA patient fibroblast cells treated with a test compound.
Protocol: Cells are thawed and incubated in DMEM-10% FBS for 72 hours, then trypsinized, counted and resuspended to 100,000 cells/mL in DMEM-10% FBS. 2 mL of the cell suspension is plated in a 6-well cell culture plate with a sterile cover slip and incubated for 3 to 5 hours. Test compounds are serially diluted 3.16-fold in 100% DMSO to generate a 7-point dilution curve. […]
Cell culture medium is aspirated from the wells containing cover slips and gently washed three times with cold PBS. […] The number of gems is counted per ≥150 nuclei and % activation is calculated using DMSO and 10 nM bortezomib as controls. For each test compound, the cells are examined at all wavelengths to identify test compounds with inherent fluorescence.

[3] = test system: Smn protein; experiment: Smn protein assay in human motor neurons; assay type: cell-based; conditions: human motor neurons derived from SMA iPS cells; increasing concentrations; 72 hours; confocal fluorescence microscopy
Procedure: Smn immunofluorescent confocal microscopy is used to quantify the level of Smn protein in human motor neurons treated with test compounds.
Protocol. Human motor neurons derived from SMA iPS cells (Ebert et al., Nature, 2009, […]; and, Rubin et al., BMC Biology, 2011, 9:42) are treated with test compound at various concentrations for 72 hours. The level of Smn protein in the cell nucleus is quantified using Smn immunostaining and confocal fluorescence microscopy essentially as described in Makhortova et al., Nature Chemical Biology, 2011, 7:544. The level of Smn protein in compound-treated samples is normalized to that in vehicle-treated samples and plotted as a function of the compound concentration.

Row | SMILES | exon 7 inclusion [1] | SMN2mini FL mRNA relative to vehicle control [1] | EC (1.5-fold) [1] [µM] | number of gems relative to DMSO [2] | Smn protein in the nucleus [3]
1 | CCN1CCN(c2ccc3cc(-c4cn5cc(C)nc(C)c5n4)c(=O)oc3c2)C[C@@H]1C [Cpd 626, 3-(6,8-dimethylimidazo[1,2-a]pyrazin-2-yl)-7-[(3S)-4-ethyl-3-methylpiperazin-1-yl]-2H-chromen-2-one] | fully restored exon 7 inclusion relative to untreated cells | increased SMN2mini FL mRNA at low concentrations | < 0.1 | progressively more gems relative to cells treated with DMSO | progressively more Smn protein in the nucleus
2 | CC(C)NCCc1ccc2cc(-c3nc4c(Cl)cccc4s3)c(=O)oc2c1 [Cpd 35, 3-(4-chloro-1,3-benzothiazol-2-yl)-7-[2-(propan-2-ylamino)ethyl]-2H-chromen-2-one] | fully restored exon 7 inclusion relative to untreated cells | increased SMN2mini FL mRNA at low concentrations | 0.3 to 1 | progressively more gems relative to cells treated with DMSO | progressively more Smn protein in the nucleus
